The values that follow come from paper PMC6271716, “Design, Synthesis and SAR Studies of NAD Analogues as Potent Inhibitors towards CD38 NADase” (Molecules, 2014).

A word on the IC50: it is the concentration needed to halve the response being measured.

For this experiment, the target named is T1, CD38 NADase (Homo sapiens, UniProt P28907, N100D/N164D/N209D/N219D).
T1 construct: pPICZαA carrying the C-terminus of CD38 (AA46-300, with the four glycosylation sites mutated); made in house; host or cells: Pichia pastoris X33 (pPICZαA vector)
T1 sequence (P28907 46-300 N100D/N164D/N209D/N219D): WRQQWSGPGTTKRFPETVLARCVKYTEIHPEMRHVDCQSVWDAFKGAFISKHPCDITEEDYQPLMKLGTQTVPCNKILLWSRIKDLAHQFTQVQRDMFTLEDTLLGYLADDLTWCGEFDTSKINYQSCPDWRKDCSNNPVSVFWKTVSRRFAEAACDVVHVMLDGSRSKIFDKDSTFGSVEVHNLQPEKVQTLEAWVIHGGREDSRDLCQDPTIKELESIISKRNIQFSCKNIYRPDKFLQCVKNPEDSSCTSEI
The experiment is described as follows: Enzyme activity assay: inhibition of the NAD-glycohydrolase (NADase) activity of recombinant CD38 (NAD cycling assay). It counts as biochemical. The conditions noted are these: for IC50: read-out: IC50, inhibitory activities of CD38 NADase. On the procedure:
Enzyme inhibition assays. The inhibitory activities to CD38 NADase of NAD analogues were evaluated by the method reported before. In this method, the inhibitions of NADase activities were calculated from the decrease of the NAD content.
Recombinant CD38, produced with a yeast expression system (Invitrogen, Carlsbad, CA, USA) was used to prepare the recombinant CD38 as reported previously. Briefly, pPICZαA carrying the C-terminus of CD38 (AA46-300, with the four glycosylation sites mutated, N100D, N164D, N209D and N219D) was transformed Pichia pastoris yeast, X33. The recombinant CD38 was induced by methanol and purified by phenylsepharose chromatography and cation exchange chromatography (SP column, GE Healthcare, Little Chalfont, UK). All the chemicals used in the enzymatic assays were purchased from Sigma (Santa Clara, CA, USA).
To study the inhibition of the NAD-glycohydrolase (NADase) activity of CD38 by the compounds, an enzymatic assay was performed. Briefly, different concentrations of the compound were mixed with recombinant CD38 (0.3 ng) and bovine serum albumin (1 µg) in a 16 µL-reaction mixture, then incubated in the dark for 2 hours at room temperature. NAD was added to the mixture to a final concentration of 2.5 µM to start the reaction. Aliquots (4 µL) of the reaction mixtures were withdrawn at 0, 4, 8 and 12 min, and the reaction was stopped by adding 4 µL of 0.6 M HCl, followed by neutralization with 8 µL of 0.5 M phosphate buffer, pH 8. The subsequent cycling reaction was conducted in 96-well plate with 16 µL of the sample mixed with 100 µL of the reagent containing 2% ethanol, 100 µg/mL alcohol dehydrogenase, 20 µM resazurin, 11 µg/mL diaphorase, 10 µM flavin mononucleotide and 100 mM sodium phosphate, pH 7. The cycling reaction was allowed to proceed for 10 min and the rate of fluorescence increase of resorufin (with excitation at 544 nm and emission at 590 nm) was measured using the Infinite M200 fluorescence plate reader (TECAN, Grödig, Austria). The relative NAD content was measured from the slope of fluorescence increase and the NAD-glycohydrolase activity was calculated from the decrease of NAD content at 0, 4, 8 and 12 min after the reaction started. As a control, each compound was directly added to the cycling reaction system with corresponding concentration to evaluate the potential interference to the cycling assay itself. IC50 values of inhibitors were calculated by the GraphPad Prism 5 software (GraphPad Software, Inc., La Jolla, CA, USA).

The mark [1] stands for this setting: recombinant CD38 0.3 ng, 2 h preincubation at room temperature, NAD 2.5 µM.

For `NC(=O)c1ccc[n+](C2OC(CSP(=O)(O)OP(=O)([O-])OCC3OC(n4cnc5c(N)ncnc54)C(O)C3O)C(O)C2F)c1` (stereo not drawn) [Compound 10, 2′-Deoxy-2′-fluoro-5′-thio-phosphate-arabinofuranoside-β-nicotinamide adenine dinucleotide], the IC50 under setting [1] worked out at 0.341 µM.

With `C[C@@]1(F)[C@H](O)[C@@H](COP(=O)(O)CP(=O)(O)OC[C@H]2O[C@@H]([n+]3cccc(C(N)=O)c3)[C@](C)(F)[C@@H]2O)O[C@H]1[n+]1cccc(C(N)=O)c1` [Compound 22, Bis(2′-deoxy-2′-fluoro-2′-methyl-β-nicotinamide)-methylenediphosphonate], the “IC50, inhibitory activities of CD38 NADase” value under setting [1] is “n.s”.

Regarding `NC(=O)c1ccc[n+]([C@@H]2O[C@H](COP(=O)(O)CP(=O)(O)OC[C@H]3O[C@@H]([n+]4cccc(C(N)=O)c4)[C@@H](F)[C@@H]3O)[C@@H](O)[C@@H]2F)c1` [Compound 21, Bis(2′-deoxy-2′-fluoro-β-nicotinamide-arabinosyl)-methylenediphosphonate], the IC50 under setting [1] was 7.98 µM.

Consider `NC(=O)c1ccc[n+]([C@@H]2O[C@H](COP(=O)([O-])OP(=O)(O)OC[C@H]3O[C@@H](n4cnc5c(N)ncnc54)[C@H](O)[C@@H]3O)[C@@H](O)[C@@H]2F)c1` [Compound 23, 2′-deoxy-2′-fluoroarabinosyl-β-nicotinamide adenine dinucleotide, reference compound], for which the IC50 under setting [1] stood at 0.0611 µM.

On to `NC(=O)c1ccc[n+]([C@@H]2O[C@H](COP(=O)(O)OP(=O)(O)OC[C@H]3O[C@@H]([n+]4cccc(C(N)=O)c4)[C@@H](F)[C@@H]3O)[C@@H](O)[C@@H]2F)c1` [Compound 20, Bis(2′-deoxy-2′-fluoro-β-nicotinamide-arabinosyl) pyrophophate], for which the IC50 under setting [1] was 0.575 µM.

As to `COc1ncnc2c1ncn2C1OC(COP(=O)(O)OP(=O)([O-])OCC2OC([n+]3cccc(C(N)=O)c3)C(F)C2O)C(O)C1O` (stereo not drawn) [Compound 19, 2′-Deoxy-2′-fluoro-arabinosyl-β-nicotinamide 6-O-methyl-hypoxanthine dinucleotide], the IC50 under setting [1] came to 0.133 µM.

For `NC(=O)c1ccc[n+](C2OC(COP(=O)([O-])OP(=O)(O)OCC3OC(n4cnc5c(=O)[nH]c(N)nc54)C(O)C3O)C(O)C2F)c1` (stereo not drawn) [Compound 13, 2′-Deoxy-2′-fluoro-arabinosyl-β-nicotinamide guanine dinucleotide], under setting [1], the IC50 came out at 0.0893 µM.

For `NC(=O)c1ccc[n+]([C@@H]2O[C@H](COP(=O)(O)O)[C@@H](O)[C@@H]2F)c1` [Compound 8, 2′-deoxy-2′-fluoroarabinosyl-β-nicotinamide mononucleotide, reference compound], the IC50 under setting [1] turned out to be 0.297 µM.

Take `NC(=O)c1ccc[n+](C2OC(COP(=O)([O-])OP(=O)(O)OCC3OC(n4cnc5c(=O)[nH]cnc54)C(O)C3O)C(O)C2F)c1` (stereo not drawn) [Compound 12, 2′-Deoxy-2′-fluoro-arabinosyl-β-nicotinamide hypoxanthine dinucleotide]: the half-inhibitory concentration (IC50) under setting [1] was determined as 0.109 µM.

On to `NC(=O)c1ccc[n+](C2OC(COP(=O)([O-])OP(=O)(O)OP(=O)(O)OCC3OC(n4cnc5c(N)ncnc54)C(O)C3O)C(O)C2F)c1` (stereo not drawn) [Compound 11, P^1-(Adenosine)-P^3-(2′-deoxy-2′-fluoro-β-nicotinamide arabinofuranoside) triphosphate], for which, under setting [1], the IC50 came to 1.15 µM.

For the compound `CC1(F)C(O)C(COP(=O)([O-])OP(=O)(O)OCC2OC(n3cnc4c(N)ncnc43)C(O)C2O)OC1[n+]1cccc(C(N)=O)c1` (stereo not drawn) [Compound 7, 2′-Deoxy-2′-fluoro-2′-methyl-β-nicotinamide adenine dinucleotide], the IC50 under setting [1] is 1810 µM. For the same compound, the “inhibition of CD38 NADase, in words” value (recombinant CD38, NAD 2.5 µM) was “weak inhibition”.
